# What was measured:
# Type in all cases: cell-based
# Aspergillus flavus = test: Agar plate disc-diffusion, antifungal inhibition zone
# Procedure: (§1) The agar plate disc-diffusion method was applied. […] The discs were then placed onto the surface of agar plates (nutrient agar for bacteria and Sabouraud's dextrose agar for fungi) seeded with the test organism. Each plate contained 15 mL of the agar medium, previously seeded with 0.2 mL of the broth culture of each organism pregrown for 18 hours. The plates were incubated at 37° C. for 48 h, and 72 h for fungi. The inhibition zones were measured in mm. Discs impregnated with DMSO were used as a control, and its inhibition zone was subtracted from the tested compound actual inhibition zone.
# [1] = system: Chrysosporium keratinophilum; test: as above
# Procedure: as §1
# Bacillus Cereus = test: Agar plate disc-diffusion, antibacterial inhibition zone
# Procedure: as §1
# Pseudomonas aeruginosa = test: as above
# Procedure: as §1
# Staphylococcus aureus = test: as above
# Procedure: as §1
# Escherichia coli = test: as above
# Procedure: as §1
# different microbes = test: Antimicrobial activity, agar plate disc-diffusion (overall statement); details: against different microbes, result in words
# Procedure: The agar plate disc-diffusion method was applied. Sterilized filter papers (6 mm in diameter) were wetted with 10 μL of a solution of 3-(4-bromophenyl)-5-((2-isopropyl-5-methylphenoxy)methyl)-1,2,4-oxadiazole (3) to be tested, containing 10 mg/mL in DMSO, and the discs were allowed to air dry. The discs were then placed onto the surface of agar plates (nutrient agar for bacteria and Sabouraud's dextrose agar for fungi) seeded with the test organism. Each plate contained 15 mL of the agar medium, previously seeded with 0.2 mL of the broth culture of each organism pregrown for 18 hours. The plates were incubated at 37° C. for 48 h, and 72 h for fungi. The inhibition zones were measured in mm. Discs impregnated with DMSO were used as a control, and its inhibition zone was subtracted from the tested compound actual inhibition zone.
# [2] = system: human prostate cancer cells (PC3); test: Cytotoxicity by SRB assay; details: 0.01 μM to 100 μM for 72 h, result in words
# Source text: (§2) The anticancer activity of the described synthesized compounds against highly aggressive androgen-independent metastatic human prostate cancer cells (PC3) and osteosarcoma (MG-63) cells. The human prostate cancer cells (PC3) and human osteosarcoma cells (MG-63) were obtained from Nawah Scientific Inc. (Mokatam, Cairo, Egypt) and cultured in DMEM (Dulbecco's modified eagle's medium), Gibco, USA, supplemented with fetal bovine serum (FBS) at a concentration of 10% and 100 U/mL of penicillin and streptomycin (PS). The Cells were incubated at 37° C. in a humidified environment that contained 5% CO2.
# (§3) Cells were seeded in 96-well plates as aliquots of 100 μL cell suspension and incubated in a complete media for 24 h. afterward, cells were treated with 3-(4-bromophenyl)-5-((2-isopropyl-5-methylphenoxy)methyl)-1,2,4-oxadiazole at diverse concentrations ranging from 0.01 μM to 100 μM for 72 h. Then, cells were fixed at 4° C. for one hour with 150 μL of 10% trichloroacetic acid (TCA). […] Then, 150 μL of Tris pH 10.5 (10 mM) was added, and the absorbance was measured at 540 nm using a BMG LABTECH®-FLUOstar Omega microplate reader (Ortenberg, Germany). Half maximal inhibitory concentrations (IC50) values were calculated for each experiment using GraphPad Prism 6 software. […]
# (§4) The inhibition was calculated using the following equation: Inhibition %=100−Average Viability
# [3] = system: human osteosarcoma cells (MG-63); test: Cytotoxicity by SRB assay; details: MG-63 cells, 0.01 μM to 100 μM for 72 h, result in words
# Source text: as §2, §3, §4
# [4] = A = concentration of comp. = 10,000 μL
# [5] = B = concentration of comp. = 30,000 μL
# [6] = C = concentration of comp. = 50,000 μL
Compound,inhibition zone (Aspergillus flavus; [4]) [mm],inhibition zone (Aspergillus flavus; [5]) [mm],inhibition zone (Aspergillus flavus; [6]) [mm],"inhibition zone [1, 4] [mm]","inhibition zone [1, 5] [mm]","inhibition zone [1, 6] [mm]",inhibition zone (Bacillus Cereus; [4]) [mm],inhibition zone (Bacillus Cereus; [5]) [mm],inhibition zone (Bacillus Cereus; [6]) [mm],inhibition zone (Pseudomonas aeruginosa; [4]) [mm],inhibition zone (Pseudomonas aeruginosa; [5]) [mm],inhibition zone (Pseudomonas aeruginosa; [6]) [mm],inhibition zone (Staphylococcus aureus; [4]) [mm],inhibition zone (Staphylococcus aureus; [5]) [mm],inhibition zone (Staphylococcus aureus; [6]) [mm],inhibition zone (Escherichia coli; [4]) [mm],inhibition zone (Escherichia coli; [5]) [mm],inhibition zone (Escherichia coli; [6]) [mm],also measured
"Cc1ccc(C(C)C)c(OCc2nc(-c3ccc(Br)cc3)no2)c1 [compound 3, 3-(4-bromophenyl)-5-((2-isopropyl-5-methylphenoxy)methyl)-1,2,4-oxadiazole]",17,20,29,26,28,48,25,27,42,24,27,39,13,17,21,28,37,55,antimicrobial activity (different microbes): excellent antimicrobial activities
"O=C(O)c1cn(C2CC2)c2cc(N3CCNCC3)c(F)cc2c1=O [Cip., ciprofloxacin, reference compound]",29,30,42,29,30,53,29,30,42,29,30,53,43,44,53,30,39,60,
"Cc1ccc(C(C)C)c(OCc2nc(-c3ccc(Br)cc3)no2)c1 [3-(4-bromophenyl)-5-((2-isopropyl-5-methylphenoxy)methyl)-1,2,4-oxadiazole]",,,,,,,,,,,,,,,,,,,antiproliferative activity [2]: excellent antiproliferative activities; antiproliferative activity [3]: excellent antiproliferative activities
